Holding throughout (type): in vivo, rat
For one assay, the system named is 5-Week-old SD rats. The experiment in a line: Bone growth promoting effect in rats (transdermal carbon dioxide absorption via external administration device). The text has this: Bone growth promoting effect in rats (using a carbon dioxide external administration device as a means for absorbing a therapeutic agent for bone fracture, a bone growth promoting agent, or a therapeutic or prophylactic agent for bone diseases containing carbon dioxide as an active ingredient)
5-Week-old SD rats were used as test animals. A carbon dioxide absorption aid consisting of 93.77% by weight of water, 5% by weight of glycerin, 0.65% by weight of carbomer, 0.15% by weight of sodium alginate, 0.15% by weight of sodium dihydrogen phosphate, 0.18% by weight of sodium hydroxide, 0.10% by weight of methylparaben was applied twice a week to a hair-shaved right lower limb of a rat of the carbon dioxide absorption group (n=6) in a thickness of 2 mm under anesthesia according to the patent document 7. The lower body of the rat was covered to seal with a bag having 4 cm width and 4 cm length and the top of the bag was bound tightly with a rubber band. Then, the bag was filled with 100% concentration of carbon dioxide through a vinyl tube from a carbon dioxide bomb in order to allow carbon dioxide to be absorbed for 10 minutes. The control group (n=3) was subjected to only the anesthetic procedure. The above mentioned procedures were continued for 3 months. After 3 months, the tibias of both legs were collected from all rats and the length of them was measured by X-ray. […]

A further assay relates to 12-week-old SD rats. Briefly: Bone fracture healing promoting effect in rats (simple femur fracture). The settings on record: carbon dioxide absorption 20 minutes, X-ray. The text has this:
Bone fracture healing promoting effect in rats (using a carbon dioxide external administration device as a means for absorbing a therapeutic agent for bone fracture, a bone growth promoting agent, or a therapeutic or prophylactic agent for bone diseases containing carbon dioxide as an active ingredient)
According to the literature (Kokubo, T et al., J Orthop Res. 2003 May; 21(3): 503-510), a simple fracture was made in a femur of 12-week-old SD rats (n=23). The rats were matched based on their body weight and were divided into two groups (a control group: n=11; a carbon dioxide absorption group: n=12). In the same procedures as Example 1 except for adopting 20 minutes of the carbon dioxide absorption time, carbon dioxide absorption into the fractured limb was conducted. After making a fracture, X-ray images of the femur were taken for 2 rats of each group at the first week, 3 rats of each group at the second week, and 6 rats of the control group and the carbon dioxide absorption group at the third week. After the completion of the test, all rats were euthanized and the femurs were collected from the rats.

The next assay concerns 5-Week-old Wister rats. The experiment in a line: Bone growth promoting effect in exercise-loaded rats. Here is the method:
Bone growth promoting effect in exercise-loaded rats (using a carbon dioxide external administration device as a means for absorbing a therapeutic agent for bone fracture, a bone growth promoting agent, or a therapeutic or prophylactic agent for bone diseases containing carbon dioxide as an active ingredient)
5-Week-old Wister rats were matched based on their body weight and were divided into two groups (a control group: n=8; an exercise-loaded group: n=16). The running training for 30 minutes per day using an activity wheel was given to all rats for five continuous days. The exercise-loaded rats were matched based on the running distance on the fourth and fifth day as well as the body weight on the fifth day and were divided into two groups (a training group: n=8; a carbon dioxide absorption group: n=8). After shaving the lower body hair of all rats, the running training for 30 minutes per day using an activity wheel was given to the training group and the carbon dioxide absorption group. This training was done five times a week for 4 weeks. […] The tibias of both legs were collected from the rats, and then the entire length of the tibias was measured by X-ray. […] An auxotonic gristle plate of the tissue section was stained with Safranine O and its length was measured.

`O=C=O` [carbon dioxide]: in the assay with 5-Week-old SD rats (100% carbon dioxide to right lower limb 10 minutes twice a week for 3 months, X-ray, P<0.05, FIG. 1), the “length of the right tibia (ratio of the length between the right tibia and the left tibia) versus control group” value is “statistically significantly longer”. Besides, in the assay with 5-Week-old SD rats (after 3 months of carbon dioxide absorption, FIG. 2), the “number of proliferating cells (PCNA staining of tibia auxotonic gristle area) versus control group” value is on record as “larger”. Further, the “fracture healing at the first and second week” value in the assay with 12-week-old SD rats (first and second week) is on record as “not healed”. In addition, the “rats with fracture completely healed at the third week” value with 12-week-old SD rats (third week (control group 1/6)) is 6/7. The “length of the auxotonic gristle plate versus training group and control group” value in the assay on 5-Week-old Wister rats (4 weeks, Safranine O staining, FIG. 4) is “statistically significantly longer”. In addition, in the assay on 5-Week-old Wister rats (running training plus carbon dioxide absorption to both lower limbs 10 minutes, five times a week for 4 weeks, X-ray, P<0.1, FIG. 3), the “length of tibias versus training group” value is “statistically significantly longer”.

The values above are taken from patent US20140127120A1, “THERAPEUTIC AGENT FOR BONE FRACTURE COMPRISING CARBON DIOXIDE AS AN ACTIVE INGREDIENT” (NEOCHEMIR INC., priority 2011, published 2014).
